Experimental data reported in US4568689A, “Pharmaceutical preparation for the treatment of hypertensive disease and myocardial infarction” (priority 1983, dated 1986).
Entries after “also recorded” stand apart in the source; their conditions may differ.

Tests used:
[1] = test system: hemodynamic effects of acetylcholine, neoepinephrine, noradrenaline, histamine and angiotensin; assay: influence on hemodynamic effects of acetylcholine, noradrenaline, neoepinephrine, angiotensin and histamine in narcotized cats; format: in vivo
Method: The effect of the pharmaceutical preparation according to the present invention on the arterial pressure and vegetative responses was studied in acute experiments on cats with a mass of 2.8-4.0 kg narcotized with α-glucochloralose (90 mg/kg) and urethane (100 mg/kg, intraperitoneally). The breathing, arterial pressure in the common carotid artery and electrocardiogram of the second standard lead were recorded.
The influence of the preparation according to the present invention on hemodynamic effects of acetylcholine (0.1 μg/kg) neoepinephrine (0.2 μg/kg), noradrenaline (1 μg/kg), histamine (1.5 μg/kg) and angiotensin (0.1 μg/kg) was also studied. The preparation of this invention was intravenously administered in the form of a 2.5% solution in doses of 0.5 to 10 mg/kg. The peripheral part of the vagus nerve was irritated by supromaximum pulses with the frequency of 30 Hz and duration of 0.1 ms.

in vivo = details: mouse, ip
Method: (§1) Acute toxicity measurements were carried out in experiments on white mongrel mice upon intraperitoneal administration.

white mongrel mice = assay: in vivo; details: mouse, ip
Method: as §1

[2] = test system: experimental necrosis of myocardium caused by introduction of adrenaline; assay: histological analysis of experimental necrosis of myocardium caused by adrenaline; format: in vivo, rats of the Wistar line
Method: A comparative study of the effects produced by the preparation according to the present invention and finoptin on an experimental necrosis of myocardium caused by introduction of adrenaline.
The experiments were carried out on rats of the Wistar line of gregarious keeping, both sexes, with a mass of 170 to 225 g. Each preparation was studied on a separate group of animals: (group of adrenaline-control, group of finoptin, group of the preparation according to the present invention). 72 rats were used in the experiments altogether. Injuries of myocardium were caused by way of a single-time subcutaneous administration of a 0.1% solution of adrenaline hydrochloride in the dose of 3 mg per kg of the rat's bodyweight. […] The preparation of this invention was administered subcutaneously, finoptin-per os. On the first day of the experiment the preparations were administered 30 minutes after injection of adrenaline hydrochloride. The experiment lasted for 19 days. Slaughters were effected on the 4th, 8th, 12th and 19th day of the experiment. The animals were decapitated. The heart was fixed in a 10% solution of neutral formalin and sealed in paraffin. Serial sections with the thickness of 5-6μ were coloured by Ehrlich hematoxylin-eosin. The state of vessels of myocardium, cardiomyocytes and interstitial tissue were evaluated by histological analysis.

[3] = test system: neoepinephrine model of infarction (focal necrosis) of myocardium in rats; assay: survival of rats with the neoepinephrine model of infarction; format: in vivo, rats of the Wistar line; details: 25 mg/kg subcutaneously, 7 days
Method: The study of the effect produced by the preparation according to the present invention on survival of animals with a neoepinephrine model of infarction was effected in comparison with the prior art preparations--obzidan and finoptin.
The formation of a neoepinephrine model of infarction (focal necrosis) of myocardium in rats was effected by way of an every-day subcutaneous administration of a 0.1% solution of neoepinephrine in the dose of 3 mg/kg for 7 days to rats of the Wistar line with a mass of 160-200 g. The test preparations were subcutaneously administered to the rats in the form of a 1.25% aqueous solution in the dose of 25 mg/kg 0.5 hour after injection of neoepinephrine also for 7 days.

[4] = test system: arterial pressure of spontaneously hypertensive rats; assay: effect of the oral form on arterial pressure, spontaneously hypertensive rats; format: in vivo
Method: Also studied was the efficiency of the oral form of the preparation according to the present invention. […] The efficiency was studied within the range of doses from 50 to 100 mg/kg.

[5] = side effects or contraindications on administration
[6] = 4th day, grade/number of animals (6)
[7] = 8th day, grade/number of animals (6)
[8] = 12th day, grade/number of animals (6)
[9] = 19th day, grade/number of animals (5)

Question: For C[N+]1(C)CC(CC(=O)[O-])C(=O)N1 (stereo not shown) [Preparation of this invention, (1,1-dimethyl-3-oxopyrazolin-1-io-4-yl)acetate], which “Hemodynamic effect, Neoepinephrine” value ([1]; 10 mg/kg intravenously, neoepinephrine 0.2 μg/kg) is on record?
Answer: Its value is -35%.

Question: What about the “Hemodynamic effect, Noradrenaline” value ([1]; 0.5-3.0 mg/kg intravenously, noradrenaline 1 μg/kg) of the same compound?
Answer: The value was -10%.

Question: And the “blocking of α- and β-receptors and the cholinergic system” value ([1]; higher doses (10 mg/kg))?
Answer: Its value is “substantially blocks both α- and β-receptors, as well as the cholinergic system”.

Question: And the “direct influence on effects of angiotensin and histamine” value ([1]; higher doses (10 mg/kg))?
Answer: The value was “does not provide any direct influence on effects of angiotensin and histamine”.

Question: What about the LD50 (in vivo) of the same compound?
Answer: The LD50 was 2240 mg/kg.

Question: What about the LD50 (white mongrel mice) of the same compound?
Answer: Its LD50 is 2,239 (1,279-3,917) mg/kg.

Question: What about the “changes in cardiomyocytes” value ([2]; 4th day, 25 mg/kg) of the same compound?
Answer: The value was “The granular-lumpy decomposition, necrosis of 3-5 cells is observed in a half of the investigated animals”.

Question: What about the “changes in interstitial tissue” value ([2]; 4th day, 25 mg/kg) of the same compound?
Answer: The value was “The formation of granulomae on the side of the interstitial tissue is observed in all of the animals”.

Question: And the “changes in vessels” value ([2]; 4th day, 25 mg/kg)?
Answer: The value was “the left ventricle capillaries are plethoric. In two cases insignificant infiltrations of the adventitia with lymphoid cells are observed”.

Question: What about the “edema (interstitial tissue)” value [2, 6] of the same compound?
Answer: The value was 0/6.

Question: What about the “necrobiotic regions in the wall” value [2, 6] of the same compound?
Answer: The value was 0/6.

Question: What about the “necrosis of more than 5 cells” value [2, 6] of the same compound?
Answer: The value was 0/6.

Question: What about the “wall necrosis (vessels)” value [2, 6] of the same compound?
Answer: Its value is 0/6.

Question: And the “overall therapeutic effect on the myocardium” value ([2]; 4th, 8th, 12th and 19th day)?
Answer: The value was “possesses a clearly manifested therapeutic effect allowing no significant changes in the myocardium, prevents the growth of the scarring tissue, contributes to the restoration of morphological structures of the myocardium”.

Question: And the “changes in interstitial tissue” value ([2]; 8th day, 25 mg/kg)?
Answer: The value was “the formation of the scarring tissue is to a lesser extent than in the control group”.

Question: And the “changes in vessels” value ([2]; 8th day, 25 mg/kg)?
Answer: Its value is “the coronary vessels are without changes; in some cases insignificantly plethoric vessels and changes in cells in the form of swelling are observed”.

Question: And the diffusive round-cell infiltration [2, 7]?
Answer: The diffusive round-cell infiltration was 0/6.

Question: What about the “edema (interstitial tissue)” value [2, 7] of the same compound?
Answer: The value was 0/6.

Question: What about the “infiltration of the adventitia with lymphoid cells” value (“infiltration of the adventitia” for short) [2, 7] of the same compound?
Answer: Its value is 0/6.

Question: And the “necrobiotic regions in the wall” value [2, 7]?
Answer: Its value is 0/6.

Question: What about the “necrosis of more than 5 cells” value [2, 7] of the same compound?
Answer: The value was 0/6.

Question: What about the “nuclei (pyknosis)” value [2, 7] of the same compound?
Answer: Its value is 0/6.

Question: What about the “wall necrosis (vessels)” value [2, 7] of the same compound?
Answer: Its value is 0/6.

Question: What about the “changes in cardiomyocytes” value ([2]; 12th day, 25 mg/kg) of the same compound?
Answer: The value was “In comparison with the 8th day of the experiment eosinophilia and contructure type changes are decreased”.

Question: And the “changes in interstitial tissue” value ([2]; 12th day, 25 mg/kg)?
Answer: The value was “the scarring tissue formation is more distinctly pronounced. These changes are substantially less revealed than the changes in the control group (adrenaline)”.

Question: And the “changes in vessels” value ([2]; 12th day, 25 mg/kg)?
Answer: The value was “an insignificant plethora of the vessels is observed on the 12th day of the experiment”.

Question: What about the “Nuclei (pykhnosis)” value [2, 8] of the same compound?
Answer: The value was 0/6.

Question: And the diffusive round-cell infiltration [2, 8]?
Answer: The diffusive round-cell infiltration was 0/6.

Question: What about the “edema (interstitial tissue)” value [2, 8] of the same compound?
Answer: The value was 0/6.

Question: What about the “infiltration of the adventitia” value [2, 8] of the same compound?
Answer: Its value is 0/5.

Question: And the “necrobiotic regions with changes in the vessel wall” value [2, 8]?
Answer: Its value is 0/6.

Question: And the “necrosis of more than 5 cells” value [2, 8]?
Answer: Its value is 0/6.

Question: And the “wall necrosis (vessels)” value [2, 8]?
Answer: Its value is 0/6.

Question: What about the “changes in cardiomyocytes” value ([2]; 19th day, 25 mg/kg) of the same compound?
Answer: The value was “In half of the animals the granular-lumpy decomposition is less pronounced. Necrosis of individual cells and eosinophilia, as well as contructure type changes are also observed”.

Question: And the “changes in connective tissue” value ([2]; 19th day, 25 mg/kg)?
Answer: Its value is “a less pronounced formation of the scarring tissue is to be noted as compared to the control group”.

Question: And the “changes in vessels” value ([2]; 19th day, 25 mg/kg)?
Answer: Its value is “By the 19th day this phenomena becomes more clearly pronounced; also recorded: no changes were noticed on the part of the coronary vessels. The plethora of capillaries in the left ventricle wall is noticed”.

Question: What about the “changes in the endothelium” value [2, 9] of the same compound?
Answer: The value was 0/5.

Question: What about the “infiltration of the adventitia” value [2, 9] of the same compound?
Answer: The value was 0/5.

Question: And the “necrobiotic regions with changes in the vessel wall” value [2, 9]?
Answer: Its value is 0/5.

Question: And the “necrosis of more than 5 cells” value [2, 9]?
Answer: The value was 0/5.

Question: And the “nuclei (pyknosis)” value [2, 9]?
Answer: Its value is 0/5.

Question: And the Percentage of survival ([3]; after 19 days)?
Answer: The Percentage of survival was 92%.

Question: What about the “Number of survived animals after 19 days” value ([3]; groups initially 12 animals) of the same compound?
Answer: The value was 11.

Question: And the “Variation of arterial pressure, systolic” value ([4]; 50 mg/kg per os, 4 hours)?
Answer: The value was -3 % of the initial.

Question: And the “Variation of arterial pressure, diastolic” value (shortened to “Variation … diastolic”) ([4]; 75 mg/kg per os, 1 hour)?
Answer: The value was -17 % of the initial.

Question: What about the “Variation of arterial pressure, systolic” value ([4]; 75 mg/kg per os, 1 hour) of the same compound?
Answer: The value was -10 % of the initial.

Question: What about the “Variation … diastolic” value ([4]; 75 mg/kg per os, 2 hours) of the same compound?
Answer: Its value is -18 % of the initial.

Question: What about the “superiority in duration of action over nifedipine” value ([4]; 75 mg/kg per os, vs nifedipine) of the same compound?
Answer: Its value is “at least 3 times”.

Question: And the “Variation … diastolic” value ([4]; 100 mg/kg per os, 1 hour)?
Answer: The value was -8 % of the initial.

Question: And the “Variation of arterial pressure, systolic” value ([4]; 100 mg/kg per os, 1 hour)?
Answer: Its value is -7 % of the initial.

Question: And the “Variation … diastolic” value ([4]; 100 mg/kg per os, 24 hours)?
Answer: Its value is -3 % of the initial.

Question: And the “side effects or contraindications” value [5]?
Answer: Its value is “No side effects or contraindications”.
